Experimental data taken from article PMC12441861, “Next-Generation Lipid Prodrugs Orally Deliver Tenofovir via Enhanced Chylomicron Incorporation” (ACS Pharmacology & Translational Science, 2025).
Like-named read-outs stand apart in the source and are kept apart here.

Legend:
[1] = Mouse oral PK and tissue distribution, fed state; type: in vivo; details: for Tmax / AUC(0-t) / Cmax: male, C57BL/6, mouse; for AUC(0-t): read-out: Plasma AUC0-18h; for improvement in lung AUC over TXL / improvement in lung AUC over non-BOG counterpart (21a vs 15a, 21b vs 15b) / increase in plasma AUC relative to TXL / increase in plasma AUC relative to non-BOG counterpart (21a vs 15a, 21b vs 15b) / increase in plasma Cmax relative to TXL / increase in plasma Cmax relative to non-BOG counterpart (21a vs 15a, 21b vs 15b): 10 mg/kg oral
Text: Given the increased packaging of the CF3-modified lipids into CMs compared to their ω-unmodified congeners, we selected these compounds for PK studies in mice. We hypothesized that, following oral administration, our modified prodrugs would favor CM-mediated transport into the lymphatics over absorption into mesenteric veins feeding into the portal system. By circumventing direct transport to the liver, these prodrugs are expected to achieve elevated levels in the lung relative to the liver, as lymph empties into the jugular venous angle and mixes with blood en route to the pulmonary arteries (Figure ). For all mouse PK experiments, prodrugs were formulated in a 9:1 mixture of olive oil and ethanol, then administered to male C57BL/6 mice via oral gavage at a dose of 10 mg/kg. Organs (liver, lung, and plasma) were harvested at 1, 2, 4, 8, and 18 h postdose, per the protocol described by our groups previously. Concentrations of prodrug were quantified using LC-MS/MS after tissue homogenization, extraction, and sample preparation.
(§1) The compounds TXL, 15a, 15b, 21a, 21b, and a vehicle control were prepared at a concentration of 1 mg/mL in a 90:10 solution of olive oil (Sigma-Aldrich, cat. No. O1514) and 190-proof ethanol. The dosing for each mouse was calculated based on individual body weights to achieve a final dose of 10 mg/kg. For example, a 20 g mouse would receive 200 μL of the 1 mg/mL drug formulation, while a 25 g mouse would receive 250 μL.
(§2) In accordance with the American Chemical Society Guidelines to Publication of Chemical Research, we affirm the use of standard ethical practices when housing and handling research animals, as ensured by the Emory University’s Institutional Animal Care and Use Committee (IACUC) and the Division of Animal Resources (DAR) through a rigorous protocol review, amendment, and approval process. A total of 220 C57BL6/J male mice (aged 11–12 weeks, weight, 22–30 g) were used for these studies. Each mouse was weighed, recorded, and ear-clipped for identification. The dosing for each mouse was calculated based on individual body weights to achieve a final dose of 10 mg/kg. Animals were anesthetized using isoflurane gas before receiving a single dose of drug prepared as described above using a 22-gauge gavage needle attached to a calibrated syringe.
(§3) Time points for tissue collection were 1, 2, 4, 8, and 18 h for unfasted mice, and 1, 2, 4, 8, and 24 h for fasted mice. At each time point, the mice (n = 4 per compound per time point) were anesthetized using isoflurane and subjected to cardiac puncture for blood collection into EDTA-coated tubes. The collected blood samples were immediately placed on ice before the mice were humanely euthanized via cervical dislocation. Brain, liver, lungs, and kidneys were harvested, rinsed in PBS, and placed in prelabeled tubes. Tissues were flash-frozen in liquid nitrogen then transferred to dry ice for storage.
Blood samples were collected into EDTA-coated tubes and centrifuged at 400 RCF for 10 min at 4 °C to separate plasma from the cellular components. The plasma layer was carefully pipetted off and stored in separate prelabeled and preweighed tubes. All tissues were stored at −80 °C until time for processing.
(§4) Tissues were weighed (∼50 mg) into homogenization tubes and ACN containing a 10 μM ITSD was added to achieve a final solvent-to-tissue ratio of 4:1. Homogenization beads were added, and the tissues were processed (Biotage Lysera, part no. 19–060) using two 20 s pulses with a 10 s interval period. Homogenate was centrifuged at maximum speed for 1 h, supernatant collected and analyzed via LC-MS using the method described previously. For plasma samples, a 50 μL aliquot was added 200 μL of ACN containing ITSD. The mixture was vortexed thoroughly and then centrifuged to precipitate proteins, with the supernatant collected and analyzed via LC-MS. […]

[2] = Mouse oral PK and tissue distribution, fasted state; type: in vivo; details: for Tmax: male, C57BL/6, mouse, lung, po, 10 mg/kg, tissue not stated; for lung AUC, fasted: overnight fast, final time point 24 h
Experimental: It is well established that oral absorption and subsequent tissue distribution of lipophilic drugs can be affected by an animal’s fed state. − Food intake serves as a stimulus for CM production in enterocytes, and therefore, variable fed states contribute to differences in prodrug absorption into the lymphatics. […] To evaluate the impact of fasting on drug absorption and distribution, we modified our protocol to include an overnight fast. This mouse PK experiment was performed as above, with the final time point extended to 24 h (instead of 18) for logistical considerations.
In accordance with the American Chemical Society Guidelines to Publication of Chemical Research, we affirm the use of standard ethical practices when housing and handling research animals, as ensured by the Emory University’s Institutional Animal Care and Use Committee (IACUC) and the Division of Animal Resources (DAR) through a rigorous protocol review, amendment, and approval process. During in vivo experiments, mice were housed in compliance with Emory University’s Division of Animal Resources (DAR) guidelines. For fasting experiments, food was removed the evening before the experiment. Mice had access to water throughout the fasting period. Food was reintroduced 4 h after oral dosing per industry standard protocols. Animals were monitored daily for signs of pain, distress, or adverse events. All procedures were conducted following protocols approved by the Institutional Animal Care and Use Committee (IACUC).
as §1, §2, §3
as §4, with “ITSD.” for “ITSD. The mixture was vortexed thoroughly and then centrifuged to precipitate proteins, with the supernatant collected and analyzed via LC-MS.”

[3] = in vivo, po, 10 mg/kg, single oral dose 10 mg/kg, fed mice, read-out: Liver Tmax
[4] = in vivo, po, 10 mg/kg, single oral dose 10 mg/kg, fed mice, read-out: Lung Tmax
[5] = in vivo, po, 10 mg/kg, single oral dose 10 mg/kg, fed mice, read-out: Plasma Tmax
[6] = in vivo, single oral dose 10 mg/kg, fed mice
[7] = in vivo, single oral dose 10 mg/kg, fed mice, read-out: Plasma Cmax
[8] = single oral dose 10 mg/kg, fed mice
[9] = liver, single oral dose 10 mg/kg, fed mice, read-out: Liver Tmax
[10] = plasma, single oral dose 10 mg/kg, fed mice
[11] = plasma, single oral dose 10 mg/kg, fed mice, read-out: Plasma Tmax

SMILES: C[C@H](Cn1cnc2c(N)ncnc21)OCP(=O)(O)OCCCOCCCCCCCCCCCCCCCC(F)(F)F [15a, Ammonium[(1R)-2-(6-aminopurin-9-yl)-1-methyl-ethoxy]methyl-[3-(16,16,16-trifluorohexadecoxy)propoxy]phosphinate]
- Tmax [1, 3]: 2 h
- Tmax [1, 4]: 8 h
- Tmax [1, 5]: 2 h
- AUC(0-t) [1, 6]: 706 ng·h/mL
- Cmax [1, 7]: 127 ng/mL
- Liver AUC0-18h [1, 8]: 190,000 h*ng/g
- Liver Cmax [1, 8]: 27,000 ng/g
- Lung Cmax [1, 8]: 729 ng/g

SMILES: CCCCCCCCCCCCCCCCOCCCOP(=O)(O)CO[C@H](C)Cn1cnc2c(N)ncnc21 [TXL, hexadecyloxypropyl (HDP)-TFV, reference compound]
- Fasted:Fed PK Ratio, liver AUC ([2]; 10 mg/kg oral): 0.64
- Fasted:Fed PK Ratio, liver Cmax ([2]; 10 mg/kg oral): 1.5
- Fasted:Fed PK Ratio, lung AUC ([2]; 10 mg/kg oral): 2.1
- Fasted:Fed PK Ratio, lung Cmax ([2]; 10 mg/kg oral): 2.2
- Fasted:Fed PK Ratio, plasma AUC ([2]; 10 mg/kg oral): 1.9
- Fasted:Fed PK Ratio, plasma Cmax ([2]; 10 mg/kg oral): 1.4
- increase in lung AUC in fasted versus fed mice ([2]; 10 mg/kg oral): 2 fold
- Tmax [2]: 4 h
- lung AUC, fasted ([2]; 10 mg/kg oral): 15,600 h·ng/g
- Tmax [1, 3]: 2 h
- Tmax [1, 4]: 8 h
- Tmax [1, 5]: 8 h
- Tmax ([1]; in vivo, po, 10 mg/kg, tissue not stated, read-out: Tmax (fed)): 8 h
- AUC(0-t) [1, 6]: 298 ng·h/mL
- Cmax [1, 7]: 29.1 ng/mL
- Liver AUC0-18h [1, 8]: 25,600 h*ng/g
- Liver Cmax [1, 8]: 2,660 ng/g
- Lung Cmax [1, 8]: 583 ng/g

SMILES: C[C@H](Cn1cnc2c(N)ncnc21)OCP(=O)(O)OC[C@H](COCCCCCCCCCCCCCCCCCC(F)(F)F)OCc1ccccc1 [21b, Ammonium[(1R)-2-(6-aminopurin-9-yl)-1-methyl-ethoxy]methyl-[(2S)-2-benzyloxy-3-(18,18,18-trifluorooctadecoxy)propoxy]phosphinate]
- improvement in lung AUC over TXL ([1]; fed mice): 4 fold
- improvement in lung AUC over non-BOG counterpart (21a vs 15a, 21b vs 15b) ([1]; fed mice): 4 fold
- increase in plasma AUC relative to TXL ([1]; fed mice): 15 fold
- increase in plasma AUC relative to non-BOG counterpart (21a vs 15a, 21b vs 15b) ([1]; fed mice): 5 fold
- increase in plasma Cmax relative to TXL ([1]; fed mice): 28 fold
- increase in plasma Cmax relative to non-BOG counterpart (21a vs 15a, 21b vs 15b) ([1]; fed mice): 8 fold
- Tmax [1, 9]: 4 h
- Tmax ([1]; lung, single oral dose 10 mg/kg, fed mice, read-out: Lung Tmax): 8 h
- Cmax [1, 10]: 802 ng/mL
- AUC(0-t) [1, 10]: 4530 ng·h/mL
- Tmax [1, 11]: 2 h
- Liver AUC0-18h [1, 8]: 218,000 h*ng/g
- Liver Cmax [1, 8]: 22,000 ng/g
- Lung AUC0-18h [1, 8]: 31,100 h*ng/g
- Lung Cmax [1, 8]: 3,000 ng/g

SMILES: C[C@H](Cn1cnc2c(N)ncnc21)OCP(=O)(O)OC[C@H](COCCCCCCCCCCCCCCCC(F)(F)F)OCc1ccccc1 [21a, Ammonium[(1R)-2-(6-Aminopurin-9-yl)-1-methyl-ethoxy]methyl-[(2S)-2-benzyloxy-3-(16,16,16-trifluorohexadecoxy)propoxy]phosphinate]
- Fasted:Fed PK Ratio, liver AUC ([2]; 10 mg/kg oral): 0.76
- Fasted:Fed PK Ratio, liver Cmax ([2]; 10 mg/kg oral): 1.6
- Fasted:Fed PK Ratio, lung AUC ([2]; 10 mg/kg oral): 0.83
- Fasted:Fed PK Ratio, lung Cmax ([2]; 10 mg/kg oral): 0.69
- Fasted:Fed PK Ratio, plasma AUC ([2]; 10 mg/kg oral): 2.4
- Fasted:Fed PK Ratio, plasma Cmax ([2]; 10 mg/kg oral): 0.72
- decrease in lung concentration under fasted conditions ([2]; 10 mg/kg oral): 17%
- Tmax [2]: 1 h
- lung AUC, fasted ([2]; 10 mg/kg oral): 59,900 h·ng/g
- improvement in lung AUC over TXL ([1]; fed mice): 10 fold
- improvement in lung AUC over non-BOG counterpart (21a vs 15a, 21b vs 15b) ([1]; fed mice): 9 fold
- increase in plasma AUC relative to TXL ([1]; fed mice): 16 fold
- increase in plasma AUC relative to non-BOG counterpart (21a vs 15a, 21b vs 15b) ([1]; fed mice): 7 fold
- increase in plasma Cmax relative to TXL ([1]; fed mice): 32 fold
- increase in plasma Cmax relative to non-BOG counterpart (21a vs 15a, 21b vs 15b) ([1]; fed mice): 7 fold
- Tmax [1, 9]: 4 h
- Tmax ([1]; lung, po, 10 mg/kg, tissue not stated, read-out: Tmax (fed)): 8 h
- Cmax [1, 10]: 915 ng/mL
- AUC(0-t) [1, 10]: 4710 ng·h/mL
- Tmax [1, 11]: 1 h
- Liver AUC0-18h [1, 8]: 564,000 h*ng/g
- Liver Cmax [1, 8]: 37,600 ng/g
- Lung AUC0-18h [1, 8]: 72,300 h*ng/g
- Lung Cmax [1, 8]: 7,330 ng/g
